Data published in publication PMC8289695 (Cell Reports, 2021).
Like-named read-outs stand apart in the source and are kept apart here.

Assays:
[1] = test system: SARS-CoV-2; format: cell-based, strain USA_WA1/2020; details: VPS34-IN1 5 μM, orlistat 500 μM, triacsin C 5 μM, TOFA 50 μM, 2-bromopalmitate 50 μM, A922500 30 μM, remdesivir 1 μM
[2] = test system: SARS-CoV-2; format: cell-based, strain USA_WA1/2020
[3] = test system: SARS-CoV-2; assay: microbe, parasite or virus in culture; format: cell-based, strain USA_WA1/2020
[4] = test system: SARS-CoV-2; assay: microbe, parasite or virus in culture; format: cell-based, strain USA_WA1/2020; details: Severe acute respiratory syndrome coronavirus 2, Calu-3, read-out: IC50, infectious virus production (plaque assay)
[5] = test system: Vero E6 cells; details: concentrations below 16.67 μM of 10-point dose response
[6] = biological target: VPS34 (Homo sapiens, UniProt Q8NEB9); format: cell-based; details: Huh7 cells, 24 h treatment; VPS34-IN1 2 μM, PIK-III 5 μM, SAR405 5 μM, Compound 19 5 μM, Orlistat 200 μM
Chain of VPS34 (Q8NEB9 whole entry): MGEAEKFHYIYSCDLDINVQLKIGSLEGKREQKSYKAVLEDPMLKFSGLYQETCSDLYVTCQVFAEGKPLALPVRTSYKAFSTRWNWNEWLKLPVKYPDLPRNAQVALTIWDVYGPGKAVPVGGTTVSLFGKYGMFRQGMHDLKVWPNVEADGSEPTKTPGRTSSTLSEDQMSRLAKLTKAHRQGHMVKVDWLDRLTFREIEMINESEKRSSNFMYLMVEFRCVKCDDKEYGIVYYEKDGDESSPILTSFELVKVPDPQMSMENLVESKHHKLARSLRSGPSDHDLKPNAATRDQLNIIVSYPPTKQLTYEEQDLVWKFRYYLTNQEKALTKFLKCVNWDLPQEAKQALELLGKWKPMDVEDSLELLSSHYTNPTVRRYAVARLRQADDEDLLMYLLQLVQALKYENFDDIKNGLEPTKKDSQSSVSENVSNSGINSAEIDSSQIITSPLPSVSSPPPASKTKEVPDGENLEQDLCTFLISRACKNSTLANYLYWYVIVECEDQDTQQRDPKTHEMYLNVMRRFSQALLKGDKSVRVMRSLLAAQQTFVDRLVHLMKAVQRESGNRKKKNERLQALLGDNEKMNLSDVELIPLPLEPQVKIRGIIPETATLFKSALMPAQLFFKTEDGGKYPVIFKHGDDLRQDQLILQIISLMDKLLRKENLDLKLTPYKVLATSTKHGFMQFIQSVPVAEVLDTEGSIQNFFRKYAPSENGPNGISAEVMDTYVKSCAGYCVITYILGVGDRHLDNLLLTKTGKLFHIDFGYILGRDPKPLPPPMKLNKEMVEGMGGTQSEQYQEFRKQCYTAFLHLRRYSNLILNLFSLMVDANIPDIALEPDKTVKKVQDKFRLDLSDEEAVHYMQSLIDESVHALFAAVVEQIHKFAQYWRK

[7] = test system: SARS-CoV-2; format: cell-based, strain USA_WA1/2020; remark: listed apart in the source
[8] = read-out: IC50, infectious virus production (focus forming assay)

| SMILES | dsRNA and SARS-CoV-2 N distribution (replication centers) [1] | viral RNA levels [2] | IC50 [3, 8] [µM] | IC50 [4] [µM] | further results |
| --- | --- | --- | --- | --- | --- |
| CCCCCCCCCCCCCCC(Br)C(=O)O (stereo not shown) [2-bromopalmitate] | fewer but larger foci positive for both markers | reduced RNA levels at both MOI 0.01 and 1 | 23 |  | concentrations at which infectious virus production was inhibited [3]: greater than 10 μM |
| O=C(Nc1ccccc1)Nc1ccc(-c2ccc(C(=O)[C@@H]3CCC[C@H]3C(=O)O)cc2)cc1 [A922500] | loss of these distinct puncta and dispersion of dsRNA and SARS-CoV-2 N |  | 4.02 |  |  |
| C=C1C(=O)OC(CCCCCCCC)C1C(=O)O (stereo not shown) [C75] |  |  | 22.8 |  |  |
| Nc1ncc(-c2ccnc(Nc3ccncc3)n2)c(CC2CC2)n1 [PIK-III] |  |  |  | 0.12 | toxicity at the remaining concentrations (resistance 1-20 hpi) [5]: no toxicity was observed |
| C[C@@H]1COCCN1c1cc(=O)n2c(n1)N(Cc1cncc(Cl)c1)[C@H](C(F)(F)F)CC2 [SAR405] |  |  |  |  | IC50 ([3]; Severe acute respiratory syndrome coronavirus 2, Calu-3, read-out: IC50, infectious virus production (focus forming assay)): 0.376 µM |
| CCCCCCCCCCCCCCOc1ccc(C(=O)O)o1 [TOFA] | loss of these distinct puncta and dispersion of dsRNA and SARS-CoV-2 N |  | 1.34 |  |  |
| CC(C)(O)CNc1ncc(-c2ccnc(Nc3ccnc(Cl)c3)n2)c(CC2CC2)n1 [VPS34-IN1] | loss of these distinct puncta and dispersion of dsRNA and SARS-CoV-2 N | reduced RNA levels at both MOI 0.01 and 1 |  | 0.55 | toxicity at the remaining concentrations (resistance 1-20 hpi) [5]: no toxicity was observed |
| CCOC(=O)[C@@]1(CCCCCCOc2ccc(Cl)cc2)CO1 [etomoxir] |  |  |  |  | inhibition of SARS-CoV-2 (focus forming assay) [3]: Neither compound showed any inhibition |
| CCCCCCCCCCC[C@@H](C[C@@H]1OC(=O)[C@H]1CCCCCC)OC(=O)[C@H](CC(C)C)NC=O [orlistat] | loss of these distinct puncta and dispersion of dsRNA and SARS-CoV-2 N | reduced RNA levels at both MOI 0.01 and 1 |  | 21.2 | effect on GFP-2xFYVE localization to endosomes (puncta) [6]: did not affect GFP-2xFYVE localization; inhibition of viral cytopathic effects at highest concentration [7]: complete inhibition was not achieved |
| CCC(CC)COC(=O)[C@H](C)N[P@](=O)(OC[C@H]1O[C@@](C#N)(c2ccc3c(N)ncnn23)[C@H](O)[C@@H]1O)Oc1ccccc1 [remdesivir] | distribution of N and dsRNA similar to the DMSO control |  |  |  | RNA synthesis at earlier time points (4 and 10 hpi) [2]: inhibited RNA synthesis at earlier time points as well |
| CCC/C=C/C/C=C/C=C/C=N/NN=O [triacsin C] | fewer but larger foci positive for both markers | reduced RNA levels at both MOI 0.01 and 1 |  | 0.04 |  |
| COc1ccc(CN2CCNCC2)c(OC)c1OC [trimetazidine] |  |  |  |  | inhibition of SARS-CoV-2 (focus forming assay) [3]: Neither compound showed any inhibition |
